Legend:
ASCT2 mRNA [1] = assay: ASCT2 gene expression (RT-qPCR, relative to GAPDH) after ASCT2 gene silencing in SK-HEP-1 cells; type: cell-based, human; conditions: at 24 h; for ASCT2 mRNA relative abundance: liver carcinoma SK-HEP-1 cells, 10 nM siRNA, treatment 6 h, 0.5% Lipofectamine 2000, FIG. 4B
Method: (§1) SK-HEP-1, T24, HT-1080 and HCT-116 cell lines were maintained in a humidified atmosphere of 5% CO2 at 37° C. SK-HEP-1 cells were grown in RPMI-1640 (Sigma, St. Louis, Mo.) supplemented with 20% fetal bovine serum (FBS) (Gibco, UK), 100 U/mL penicillin G, 0.25 μg/mL amphotericin B, 100 μg/mL streptomycin (Gibco, UK), 25 mM sodium bicarbonate (Merck, Germany) and 25 mM N-2-hydroxyethylpiperazine-N′-2-ethanosulfonic acid (HEPES) (Sigma, St. Louis, Mo.). T24 and HT-1080 cells were grown, respectively, in Dulbecco's Modified Eagle's Medium (DMEM)—high glucose (Sigma, St. Louis, Mo.) and DMEM—low glucose (Sigma, St. Louis, Mo.), supplemented with 10% FBS (Gibco, UK), 100 U/mL penicillin G, 0.25 μg/mL amphotericin B, 100 μg/mL streptomycin (Gibco, UK), 25 mM sodium bicarbonate (Merck, Germany) and 25 mM HEPES (Sigma, St. Louis, Mo.). HCT-116 cells were grown in McCoy's 5A (Sigma, St. Louis, Mo.) supplemented with 10% FBS (Gibco, UK), 100 U/mL penicillin G, 0.25 μg/mL amphotericin B, 100 μg/mL streptomycin (Gibco, UK), 25 mM sodium bicarbonate (Merck, Germany) and 25 mM HEPES (Sigma, St. Louis, Mo.). For all cell lines the medium was changed every 2 days, and cells reached confluence 3-4 days after initial seeding. For subculturing, cells were dissociated with 0.25% trypsin-ethylenediaminetetraacetic acid (EDTA) (Sigma, St. Louis, Mo.), split 1:15 or 1:20 and subcultured in a 21-cm^2 growth area (Sarstedt, Germany).
(§2) Total RNA was isolated and purified using the SV Total RNA Isolation System (Promega, USA) according to manufacturer's instructions. RNA quality and concentration were verified in the NanoDrop ND1000 Spectrophotometer (Thermo Scientific, USA), and RNA integrity and genomic DNA contamination were evaluated by agarose gel electrophoresis. Total RNA (1 μg) was converted into cDNA using the Maxima Scientific First Strand cDNA Synthesis Kit for RT-qPCR (Thermo Scientific, USA), according to instructions. The following protocol was used: 1st step, 10 min at 25° C.; 2nd step, 15 min at 50° C.; 3rd step, 5 min at 85° C. cDNA was used for qPCR analysis using Maxima SYBR Green qPCR Master Mix (Thermo Scientific, USA) in the StepOnePlus instrument (Applied Biosystems, USA). QuantiTect Primer Assay for LAT1 and ASCT2 and for the endogenous control gene GAPDH (Quiagen, Germany) were used. The qPCR reaction was performed in 96-well PCR plates (Sarstedt, Germany) as follows: one cycle of 10 min at 95° C., followed by 40 PCR cycles at 95° C. 15 s and 60° C. 60 s. […] No template controls were always evaluated for each target gene. Quantification cycle (Cq) values were generated automatically by the StepOnePlus 2.3 Software and the ratio of the target gene was expressed in comparison to the endogenous control gene GAPDH.
(§3) Cells were plated in 24-well (Sarstedt, Germany) or 6-well plates (Sarstedt, Germany) or 96-well plates with black walls clear bottom (BD Biosciences, USA) and incubated 24 h under normal growth conditions. siRNAs against ASCT2 and transfection agent were diluted at desired concentrations and mixed according to transfection agent manufacturer's instructions. The mixture was incubated 20 min at RT for siRNA-complex formation, after which it was added to the cells and incubated at 37° C., 5% CO2. After the incubation period, serum and antibiotic was restored and cells were further incubated at normal conditions for the desired time points until evaluation of ASCT2 activity or ASCT2 expression (immunoblotting and RT-qPCR).

ASCT2 [2] = assay: ASCT2 activity: [^14C]-L-alanine uptake in SK-HEP-1 cells after ASCT2 gene silencing; type: cell-based, human; conditions: ASCT2 siRNA; general statement, conditions not given
Method: (§4) Cells were plated in 24-well plates (Sarstedt, Germany) and grown until confluence was reached. On the day of the experiment, Cell culture medium was aspirated and cells were preincubated for 15 min in Hanks' medium (ChCl 140 mM, KCl 5 mM, MgSO4.7H2O 0.8 mM, K2HPO4 0.33 mM, KH2PO4 0.44 mM, MgCl2.6H2O 1 mM, CaCl2) 0.025 mM, Tris-HCl 9.75 mM, pH 7.4). Uptake was initiated by the addition of Hanks' medium with 0.25 μM [^14C]-L-alanine in the absence and in the presence of 3 mM unlabeled L-alanin. During preincubation and incubation cells were continuously shaken and maintained at 37° C. Uptake was terminated after 1 min by rapid removal of uptake solution by means of a vacuum pump connected to a Pasteur pipette, followed by a rapid wash with Hanks' medium. Subsequently, cells were solubilized in 0.1% vol/vol Triton X-100 (dissolved in 5 mM Tris-HCl, pH 7.4), and radioactivity was measured by liquid scintillation counting.
as §3

ASCT2 [3] = assay: ASCT2 activity: [^14C]-L-alanine uptake in fibrosarcoma HT-1080 cells after ASCT2 gene silencing; type: cell-based, human; conditions: fibrosarcoma HT-1080 cells; 5 nM siRNA; treatment 6 h; at 48 h; 0.4% Lipofectamine 2000; FIG. 8B
Method: as §4, §3

ASCT2 mRNA [4] = assay: ASCT2 gene expression (RT-qPCR) after ASCT2 gene silencing in human colon cancer HTC-116 cells; type: cell-based; conditions: treatment 6 h
Method: as §1, §2, §3

[5] = system: human colon cancer HTC-116 cells; assay: Cell proliferation assay (calcein-AM) in human colon cancer HTC-116 cells; type: cell-based; conditions: for cell proliferation / proliferation: treatment 6 h; for cell proliferation: 72 h exposure; for proliferation: at 72 h, 0.17% Lipofectamine 2000 or 0.1% Injectin, FIGS. 19B and 20B
Method: as §1
Cell proliferation was measured using calcein-AM (Thermo Fisher Scientific, USA). The membrane permeant calcein-AM, a nonfluorescent dye, is taken up and converted by intracellular esterases to membrane impermeant calcein, which emits green fluorescence. Cells were plated in 96-well plates with black walls clear bottom (BD Biosciences, USA) and incubated 24 h under normal growth conditions. Cells were incubated with test items at 37° C., 5% C02. After the incubation period, serum and antibiotic was restored and cells were further incubated at normal conditions during 72 h. After treatment with test substances or vehicle, cells were washed twice with Hanks' medium and loaded with 2 μM calcein-AM in Hanks' medium, at 37° C. for 30 min. Fluorescence was measured at 485 nm excitation and 530 nm emission wavelengths in a microplate spectrofluorometer (Gemini EM, Molecular Devices). Nine consecutive fluorescence measurements are performed per well, to allow fluorescence readings in the whole area of the well, which was then considered for the calculation of mean fluorescence per well. To determine minimum staining for calcein (calceinmin), eight wells were treated with ethanol 30 min before calcein-AM addition. The percent cell number is calculated as [(calceinsample)/(calceincontrol)]×100.

LAT1 mRNA = assay: LAT1 gene expression (RT-qPCR, relative to GAPDH) after LAT1 gene silencing in SK-HEP-1 cells; type: cell-based, human; conditions: at 24 h; for LAT1 mRNA relative abundance: liver carcinoma SK-HEP-1 cells, 10 nM siRNA, treatment 6 h, Lipofectamine 2000, FIG. 4A
Method: as §1, §2
as §3, with “LAT1” for “ASCT2”

LAT1 = LAT1 activity: [^14C]-L-leucine uptake in SK-HEP-1 cells after LAT1 gene silencing; type: cell-based, human; conditions: for inhibiting sodium-independent [^14C]-L-leucine transport: LAT1 siRNA, general statement, conditions not given; for [^14C]-L-leucine (0.25 μM) uptake at initial rate of uptake (1 min): liver carcinoma SK-HEP-1 cells, 10 nM siRNA, treatment 6 h, at 24 h and 48 h, 0.4% Lipofectamine 2000, FIGS. 5A and 5C
Method: as §4, with “experiment, cell” for “experiment, Cell”, “medium (NaCl” for “medium (ChCl”, “by” for “by the”, “μM [^14C]-L-leucine” for “μM [^14C]-L-alanine”, “unlabeled L-leucine.” for “unlabeled L-alanin.”
as §3, with “LAT1” for “ASCT2”

[6] = 5 or 25 nM siRNA, at 24 h or 48 h, 0.5% Lipofectamine 2000, FIGS. 9B and 9C
[7] = 72 h, 0.17% Lipofectamine 2000 or 0.1% Injectin, FIG. 20A

Substance | ASCT2 mRNA relative abundance (ASCT2 mRNA [1]) | inhibiting sodium-independent [^14C]-L-leucine transport (ASCT2 [2]) | [^14C]-L-alanine (0.25 μM) uptake at initial rate of uptake (1 min) (ASCT2 [3]) | ASCT2 mRNA relative abundance (ASCT2 mRNA [4]; [6]) | ASCT2 mRNA relative abundance (ASCT2 mRNA [4]; [7]) | cell proliferation ([5]; 0.1% Injectin, FIG. 14) | proliferation [5] | further results
278 (TGCCACGGTCGCCTCTGAGAA; chemistry not given here) [compound 278] | decreased | particularly effective | – | – | – | – | – | Effect on ASCT2 mRNA relative abundance compared with SEQ ID NO: 267 (ASCT2 mRNA [1]; SK-HEP-1 cells, 10 nM, p<0.05): significantly greater
267 (CCGGTCCTGTACCGTCCTCAA; chemistry not given here) [compound 267] | decreased | particularly effective | – | – | – | – | – | –
267/356/402 (sense CCGGUCCUGUACCGUCCUCAA; antisense UUGAGGACGGUACAGGACCGG; chemistry not given here) | – | – | decreased | decreased | significantly decreased | decreased | significantly decreased | –
237 (AATTACGTGGACCGTACGGAG; chemistry not given here) [compound 237] | decreased | particularly effective | – | – | – | – | – | –
58 (CTTCGCCACCTACCTGCTCAA; chemistry not given here) [compound 58] | – | – | – | – | – | – | – | Effect on LAT1 mRNA relative abundance compared with SEQ ID NO: 34 (LAT1 mRNA; SK-HEP-1 cells, 10 nM, p<0.05): significantly greater; LAT1 mRNA relative abundance (LAT1 mRNA): decreased; inhibiting sodium-independent [^14C]-L-leucine transport (LAT1): particularly effective; Effect on [^14C]-L-leucine uptake compared with SEQ ID NO: 34 (LAT1; SK-HEP-1 cells, 10 nM, p<0.05): significantly greater; [^14C]-L-leucine (0.25 μM) uptake at initial rate of uptake (1 min) (LAT1): decreased; Effect on cell proliferation compared with SEQ ID NO: 34 ([5]; 72 h, 0.1% Injectin, p<0.05): significantly greater
34 (AAGGACATCTTCTCCGTCATC; chemistry not given here) [compound 34] | – | – | – | – | – | decreased | – | LAT1 mRNA relative abundance (LAT1 mRNA): decreased; inhibiting sodium-independent [^14C]-L-leucine transport (LAT1): particularly effective; [^14C]-L-leucine (0.25 μM) uptake at initial rate of uptake (1 min) (LAT1): decreased
225 (AATAATGGCGTGGCCAAGCAC; chemistry not given here) [compound 225] | decreased | particularly effective | – | – | – | – | – | –
278/367/408 (sense UGCCACGGUCGCCUCUGAGAA; antisense UUCUCAGAGGCGACCGUGGCA; chemistry not given here) | – | – | decreased | decreased | significantly decreased | decreased | significantly decreased | –
267/397/398 (sense CCGGUCCUGUACCGUCCUCAATT; antisense UUGAGGACGGUACAGGACCGGTT; siRNA; sugars by position and backbone not given here; further chemistry not fully specified) | – | – | decreased | decreased | significantly decreased | decreased | significantly decreased | Effect on cell proliferation compared with SEQ ID NO: 267/356/402 ([5]; 72 h, 0.1% Injectin, p<0.05): significantly greater; Effect of siRNA-LAT1 SEQ ID NO: 58/387/388 upon proliferation in combination with the siRNA-ASCT2 ([5]; 72 h, siRNA-ASCT2 at non-efficacious conditions (0.037% Injectin), FIG. 18): enhanced; cell proliferation ([5]; increasing Injectin (0.037% to 0.15%), FIG. 15): decreased

— patent publication US10590422B2, “Anticancer therapeutic intervention” (PHYZAT BIOPHARMACEUTICALS, LDA., priority 2017, dated 2020)
